Laboratory results reported in patent US20250002450A1, “CATIONIC STEROID COMPOUNDS, METHOD OF OBTAINING THEREOF, FORMULATIONS COMPRISING THEREOF AND THEIR USES” (UNIVERSIDADE DO PORTO, priority 2021, published 2025).
Converted amounts (≈) assume the structure as drawn.

How the values were obtained:
[1] = tested on: Escherichia coli ATCC 25922; assay: Antibacterial MIC/MBC (broth microdilution); assay type: cell-based; details: Escherichia coli ATCC 25922
Excerpt: (§1) Twelve reference bacterial strains and nine MDR clinically relevant bacterial strains were used in this study. Gram-negative bacteria comprised reference strains E. coli ATCC 25922, K. pneumoniae ATCC 13883, Salmonella enterica serovar Typhimurium CECT 443, P. aeruginosa ATCC 27853, A. baumannii ATCC 19606, C. jejuni ATCC 33560 (ATCC—American Type Culture Collection; CECT—Colección Espanola de Cultivos Tipo); clinical isolates E. coli SA/2, an extended-spectrum β-lactamase (ESBL)-producing strain and P. aeruginosa 33b, a pan-drug-resistant isolate; and animal isolates C. jejuni P5/4, a ciprofloxacin-resistant strain, C. jejuni 4432, C. jejuni 4433, C. jejuni 4448, and E. coli 2252, a COL-resistant strain [42]. Gram-positive strains included S. aureus ATCC 29213, E. faecalis ATCC 29212, S. pyogenes ATCC 19615, and environmental isolates methicillin-resistant S. aureus (MRSA) 66/1 [43], and VAN-resistant enterococci (VRE) E. faecalis B3/101 [44]. Gram-negative fish pathogens Yersinia ruckeri ATCC 29473, Listonella anguillarum ATCC 1924, and Tenacibaculum maritimum ATCC 43397 were also included.
(§2) Strains were kept in Trypto-Casein Soy agar (TSA—Biokar Diagnostics, Allone, Beauvais, France) slants and, before each assay, were sub-cultured in Mueller-Hinton agar (MHA—Biokar Diagnostics, Allone, Beauvais, France). Y. ruckeri ATCC 29473 and L. anguillarum ATCC 1924 were kept in Nutrient Agar (Condalab, Madrid, Spain) and T. maritimum ATCC 43397 was kept in TMM agar (Condalab, Madrid, Spain), and were sub-cultured in the respective culture media before each assay. For S. pyogenes ATCC 19615, CAMHB was supplemented with 3.75% lysed horse blood (LBH—Oxoid, Basingstoke, England), whereas for C. jejuni it was supplemented with 2.5% LHB. Colony-forming unit counts of the inoculum were conducted to determine the initial inoculum size (which should be approximately 5×10^5 CFU/mL). Sterility and growth controls were included in each assay. The 96-well U-shaped untreated polystyrene microtiter plates were incubated for 20 h at 37 degrees C. (42 degrees C. for C. jejuni, in a microaerophilic atmosphere) and the minimal inhibitory concentration (MIC) was determined as the lowest concentration of compound that prevented visible growth. The minimal bactericidal concentration (MBC) was determined by spreading 100 μL of the content of the wells with no visible growth on MH plates. The MBC was determined as the lowest concentration of compound that killed 99.9% of the initial inoculum after overnight incubation at 37 degrees C. Two independent assays were performed for reference and MDR strains.
(§3) An initial screening of the antibacterial activity of the compounds was performed by the Kirby-Bauer disk diffusion method, as recommended by the Clinical and Laboratory Standards Institute (CLSI). Briefly, sterile 6 mm blank paper disks (Oxoid, Basingstoke, England) impregnated with 15 μg of each compound were placed on inoculated MH agar plates. A blank disk with dimethylsulfoxide (DMSO) was used as a negative control. MH inoculated plates were incubated for 18-20 h at 37 degrees C. At the end of incubation, the inhibition halos where measured. The MIC was used to determine the antibacterial activity of each compound, in accordance with the recommendations of the CLSI. Two-fold serial dilutions of the compounds were prepared in Mueller-Hinton Broth 2 (MHB2—Sigma-Aldrich, St. Louis, MO, USA) within the concentration range of 0.062-64 μg/mL. CTX ranging between 0.031-16 μg/mL was used as a control. Sterility and growth controls were included in each assay. Purity checks and colony counts of the inoculum suspensions were also performed in order to ensure that the final inoculum density closely approximates the intended number (5×10^5 CFU/mL). The MIC was determined as the lowest concentration of compound that inhibited growth of the bacteria. The MBC was assessed by spreading 10 μL of culture collected from wells showing no visible growth on MH agar plates. […]

[2] = tested on: E. coli ATCC 25922; assay: Membrane integrity, propidium iodide influx assay (SYTO 9/PI); assay type: cell-based, Escherichia coli; details: 0, 1, 18 h
Protocol: The influx of PI in E. coli ATCC 25922 treated with 2×MIC, MIC, and ½×MIC of compound 1 was evaluated using a commercial kit that includes fluorescent nucleic acid stains SYTO® 9 and PI. SYTO® 9 can enter cells with intact or damaged membranes, generally labeling both, whereas PI only penetrates cells with severe membrane lesions, causing a reduction in SYTO® 9 fluorescence when both dyes are present.
In these assays, COL and AMP were used as controls. COL is a polycationic antimicrobial peptide with a complex mode of action, that ultimately solubilizes the bacterial cell membrane. AMP is an aminopenicillin that inhibits cell wall synthesis by inhibiting penicillin-binding proteins. E. coli ATCC 25922 cells were treated with compound 1 and, at several time-points (0, 1, and 18 h), samples were taken, and SYTO® 9/PI ratio was determined ([FIG. 4]). The entrance of PI is reflected in a reduction of this ratio.
Briefly, E. coli ATCC 25922 colonies from overnight cultures in MHA were suspended in CAMHB to prepare an inoculum with a final concentration of approximately 5×10^5 CFU/mL. The tubes were incubated overnight at 36° C. in a water bath with shaking. Following this, the cell suspensions were centrifuged at 3500 rpm for 15 min, the supernatant was removed, the cells were carefully resuspended in fresh CAMHB and the suspension was adjusted to 0.5 McFarland. An aliquot of this suspension was then added to each tube of CAMHB alone (control) or CAMHB plus an appropriate amount of test compound. […] The tubes were incubated at 36 degrees C. in a water bath with shaking and, at pre-established time points (0, 1, and 18 h), […] aliquots were retrieved for further analysis. After the exposure time, cells were washed two times, resuspended in 0.85% NaCl, and 100 μL of each cell suspension was distributed in the wells of a microtiter plate, in triplicate. 100 μL of a mixture of 30 μM PI and 5 μM SYTO® 9 prepared in ultrapure water were added to each well, and the plates were incubated at room temperature, in the dark, for 15 min. The fluorescence intensity of the stained bacterial suspensions was determined using a microplate reader (Synergy HT, BioTek Instruments, Winooski, VT, USA) by two consecutive measurements with excitation wavelength 485 nm and emission wavelength 528 nm (SYTO® 9) or 590 nm (PI). Data were analyzed by subtracting background fluorescence from each sample, dividing the fluorescence intensity of SYTO® 9 by fluorescence intensity of PI, and the results are presented as a percentage of control. Three independent assays were performed in triplicate for each experimental condition.

[3] = tested on: E. coli ATCC 25922; assay: Enzymatic/metabolic activity, MTT assay; assay type: cell-based, Escherichia coli; details: 0, 1, 18 h
Protocol: To determine whether compound 1 could also affect enzymatic activity, 2-(4,5-dimethyl-2-thiazolyl)-3,5-diphenyl-2H-tetrazolium bromide (MTT) assay was performed. This assay can also be used as an indirect measure of cellular viability, as tetrazolium salts are reduced to purple formazan by metabolically active cells. E. coli ATCC 25922 cells were treated with compound 1 and COL and AMP were used as controls, as described above. Measurements were made at 0, 1, and 18 h.
Enzymatic activity was evaluated by the MTT assay, as previously described, with some modifications. Cell suspensions of E. coli ATCC 25922 were prepared as described above, as well as test conditions and controls. At each time point (0, 1, and 18 h), 500 μL aliquots were collected, centrifuged at 3500 rpm for 10 min, the supernatant was removed, and 300 μL of MTT solution (0.5 mg/mL in CAMHB, at 36 degrees C.) (Thiazolyl Blue Tetrazolium Bromide, Alfa Aesar, Ward Hill, MA, USA) were added. After a 30 min incubation at 36° C., the insoluble formazan product resulting from the conversion of MTT by metabolically active cells was solubilized with 300 μL of DMSO. 100 μL of each sample were transferred in duplicate to the wells of a microtiter plate and the extent of the reduction of MTT to formazan was quantified by measuring the absorbance at 570 nm (Thermo Scientific Multiskan® EX, Thermo Fisher Scientific, Waltham, MA, USA). Three independent assays were performed in duplicate, and results are expressed as a percentage of untreated control.

[4] = tested on: Yersinia ruckeri ATCC 29473; assay: Antibacterial MIC/MBC (broth microdilution); assay type: cell-based
Excerpt: as §1, §2, §3

[5] = tested on: Listonella anguilarum ATCC 1924; assay: Antibacterial MIC/MBC (broth microdilution); assay type: cell-based; details: Listonella anguilarum ATCC 1924
Excerpt: as §1, §2, §3

[6] = tested on: Staphylococcus aureus ATCC 29213; assay: Antibacterial MIC/MBC (broth microdilution); assay type: cell-based
Excerpt: as §1, §2, §3

[7] = tested on: Campylobacter jejuni ATCC 33560; assay: Antibacterial MIC/MBC (broth microdilution); assay type: cell-based; details: Campylobacter jejuni ATCC 33560
Excerpt: as §1, §2, §3

[8] = tested on: Acinetobacter baumannii ATCC 19606; assay: Antibacterial MIC/MBC (broth microdilution); assay type: cell-based; details: Acinetobacter baumannii ATCC 19606
Excerpt: as §1, §2, §3

[9] = tested on: Salmonella enterica serovar Typhimurium CECT 443; assay: Antibacterial MIC/MBC (broth microdilution); assay type: cell-based
Excerpt: as §1, §2, §3

[10] = tested on: Klebsiella pneumoniae ATCC 13883; assay: Antibacterial MIC/MBC (broth microdilution); assay type: cell-based; details: Klebsiella pneumoniae ATCC 13883
Excerpt: as §1, §2, §3

[11] = tested on: Pseudomonas aeruginosa ATCC 27853; assay: Antibacterial MIC/MBC (broth microdilution); assay type: cell-based; details: Pseudomonas aeruginosa ATCC 27853
Excerpt: as §1, §2, §3

[12] = tested on: Tenacibaculum maritimum ATCC 43397; assay: Antibacterial disk diffusion; assay type: cell-based; details: Tenacibaculum maritimum ATCC 43397, footnote *
Excerpt: as §1, §2, §3

[13] = tested on: S. aureus 66/1 (MRSA); assay: Antibacterial MIC/MBC (broth microdilution); assay type: cell-based, Staphylococcus aureus
Excerpt: as §1, §2, §3

[14] = tested on: C. jejuni 4432; assay: Antibacterial MIC/MBC (broth microdilution); assay type: cell-based, Campylobacter jejuni
Excerpt: as §1, §2, §3

[15] = tested on: C. jejuni P5/4; assay: Antibacterial MIC/MBC (broth microdilution); assay type: cell-based, Campylobacter jejuni
Excerpt: as §1, §2, §3

[16] = tested on: C. jejuni 4448; assay: Antibacterial MIC/MBC (broth microdilution); assay type: cell-based, Campylobacter jejuni
Excerpt: as §1, §2, §3

[17] = tested on: C. jejuni 4433; assay: Antibacterial MIC/MBC (broth microdilution); assay type: cell-based, Campylobacter jejuni
Excerpt: as §1, §2, §3

[18] = tested on: E. faecalis B3/101 (VRE); assay: Antibacterial MIC/MBC (broth microdilution); assay type: cell-based, Enterococcus faecalis; details: E. faecalis B3/101 (VRE)
Excerpt: as §1, §2, §3

[19] = tested on: Enterococcuss faecalis ATCC 29212; assay: Antibacterial MIC/MBC (broth microdilution); assay type: cell-based, Enterococcus faecalis; details: Enterococcuss faecalis ATCC 29212
Excerpt: as §1, §2, §3

[20] = tested on: P. aeruginosa 33b (PDR); assay: Antibacterial MIC/MBC (broth microdilution); assay type: cell-based, Pseudomonas aeruginosa; details: P. aeruginosa 33b (PDR)
Excerpt: as §1, §2, §3

[21] = tested on: E. coli SA/2 (ESBL); assay: Antibacterial MIC/MBC (broth microdilution); assay type: cell-based, Escherichia coli; details: E. coli SA/2 (ESBL)
Excerpt: as §1, §2, §3

[22] = tested on: E. coli 2252 (COL-resistant); assay: Antibacterial MIC/MBC (broth microdilution); assay type: cell-based, Escherichia coli; details: E. coli 2252 (COL-resistant)
Excerpt: as §1, §2, §3

[23] = tested on: Streptococcuss pyogenes ATCC 19615; assay: Antibacterial MIC/MBC (broth microdilution); assay type: cell-based, Streptococcus pyogenes; details: Streptococcuss pyogenes ATCC 19615
Excerpt: as §1, §2, §3

Molecule: colistin
- MIC [1]: 1 µg/mL
- reduction in SYTO 9/PI ratio vs untreated control ([2]; 1 μg/mL): only a significant reduction at 1 h
- reduction in SYTO 9/PI ratio vs untreated control ([2]; 8 μg/mL): statistically significant
- metabolic activity (MTT) vs untreated control ([3]; 1 μg/mL): only a significant reduction at 1 h
- metabolic activity (MTT) vs untreated control ([3]; 8 μg/mL): significant reduction of metabolic activity at all time points

Molecule: C[C@H](CCC(=O)NCCc1nc2ccccc2[nH]1)[C@H]1CC[C@H]2[C@@H]3CC[C@@H]4C[C@H](O)CC[C@]4(C)[C@H]3C[C@H](O)[C@]12C [Compound 7, (R)—N-(2-(1H-benzo[d]imidazol-2-yl)ethyl)-4-((3R,5R,8R,9S,10S,12S,13R,14S,17R)-3,12-dihydroxy-10,13-dimethylhexadecahydro-1H-cyclopenta[a]phenanthren-17-yl) pentanamide]
- MBC [4]: >64 µg/mL
- MIC [4]: >64 µg/mL
- MBC [5]: >64 µg/mL
- MIC [5]: >64 µg/mL
- MBC [6]: >64 µg/mL
- MIC [6]: 8 µg/mL (≈ 14.9 µM)
- MBC [1]: >64 µg/mL
- MIC [1]: >64 µg/mL
- MBC [7]: >64 µg/mL
- MIC [7]: >64 µg/mL
- MBC [8]: >64 µg/mL
- MIC [8]: >64 µg/mL
- MBC [9]: >64 µg/mL
- MIC [9]: >64 µg/mL
- MBC [10]: >64 µg/mL
- MIC [10]: >64 µg/mL
- MBC [11]: >64 µg/mL
- MIC [11]: >64 µg/mL
- Inhibition zone diameter (disk diffusion) [12]: 9 mm
- MBC [13]: >64 µg/mL
- MIC [13]: 16 µg/mL (≈ 29.9 µM)
- MBC [14]: >64 µg/mL
- MIC [14]: >64 µg/mL
- MBC [15]: >64 µg/mL
- MIC [15]: >64 µg/mL
- MBC [16]: >64 µg/mL
- MIC [16]: >64 µg/mL
- MBC [17]: >64 µg/mL
- MIC [17]: >64 µg/mL
- MBC [18]: >64 µg/mL
- MIC [18]: >64 µg/mL
- MBC [19]: >64 µg/mL
- MIC [19]: >64 µg/mL
- MBC [20]: >64 µg/mL
- MIC [20]: >64 µg/mL
- MBC [21]: >64 µg/mL
- MIC [21]: >64 µg/mL
- MBC [22]: >64 µg/mL
- MIC [22]: >64 µg/mL
- MBC [23]: >64 µg/mL
- MIC [23]: >64 µg/mL
